Measured values from ChEMBL document CHEMBL4177731, “Synthesis, in vitro α-glucosidase inhibitory activity and docking studies of novel chromone-isatin derivatives” (Bioorg Med Chem Lett, 2018).
pIC50: −log10 of the molar value.

Test: Inhibition of Saccharomyces cerevisiae alpha-glucosidase pre-incubated for 15 mins before p-nitrophenyl alpha-D-glucopyranoside substrate addition and measured after 30 mins by spectrophotometry

| pIC50 | Structure (SMILES) |
| --- | --- |
| 5.26 | O=C1/C(=N\N=C\c2coc3cc(O)ccc3c2=O)c2ccccc2N1Cc1ccccc1Cl |
| 5.42 | O=C1/C(=N\N=C\c2coc3cc(O)ccc3c2=O)c2ccccc2N1Cc1ccc(F)cc1 |
| 5.50 | O=C1/C(=N\N=C\c2coc3cc(O)ccc3c2=O)c2ccccc2N1Cc1ccc(Br)cc1 |
| 5.37 | O=C1/C(=N\N=C\c2coc3cc(O)ccc3c2=O)c2ccccc2N1Cc1ccc(Cl)cc1Cl |
| 5.33 | O=C1/C(=N\N=C\c2coc3cc(O)ccc3c2=O)c2ccccc2N1Cc1ccccc1Br |
| 4.85 | O=C1/C(=N\N=C\c2coc3ccccc3c2=O)c2ccccc2N1Cc1ccccc1F |
| 5.34 | O=C1/C(=N\N=C\c2coc3cc(O)ccc3c2=O)c2ccccc2N1Cc1ccccc1F |
| 5.41 | O=C1/C(=N\N=C\c2coc3cc(O)ccc3c2=O)c2ccccc2N1Cc1ccc(Cl)cc1 |
| 5.38 | O=C1/C(=N\N=C\c2coc3cc(O)ccc3c2=O)c2ccccc2N1Cc1cccc(F)c1 |

The next lines start with the molecule.

| Structure (SMILES) | pIC50 |
| --- | --- |
| O=C1/C(=N\N=C\c2coc3ccccc3c2=O)c2ccccc2N1Cc1cccc(F)c1 | 4.80 |
| O=C1/C(=N\N=C\c2coc3ccccc3c2=O)c2ccccc2N1Cc1ccccc1Cl | 4.87 |
| O=C1Nc2ccccc2/C1=N/N=C/c1coc2ccccc2c1=O | 4.79 |
| CN1C(=O)/C(=N\N=C\c2coc3ccccc3c2=O)c2ccccc21 | 4.93 |
| O=C1/C(=N\N=C\c2coc3ccccc3c2=O)c2ccccc2N1Cc1ccc(F)cc1 | 5.01 |
| O=C1/C(=N\N=C\c2coc3ccccc3c2=O)c2ccccc2N1Cc1ccc(Cl)cc1 | 4.78 |
| O=C1/C(=N\N=C\c2coc3ccccc3c2=O)c2ccccc2N1Cc1ccc(Br)cc1 | 5.09 |
